Patent US20030023104A1, “Therapeutic compound - fatty acid conjugates” (COMMONWEALTH SCIENTIFIC AND INDUSTRIAL RESEARCH ORGANISATION, priority 1995, published 2003)
Several values for one entry are separate records, joined by “and”; a condition that tells them apart may be missing. Equal values may be shown once. Read-outs that look alike come from different tables or passages of the source.

How the values were obtained:
UVB induced oedema = experiment: UVB erythema assay (net skin fold thickness); assay type: in vivo, Skh-1 hairless albino female mice
[1] = test system: reserpine-induced catatonia; experiment: Anti-reserpine activity (reserpine-induced catatonia); conditions: for Response at 15 min.: individual mice 1 and 2
Method: The biological activities of L-DOPA and L-DOPA-GTP2 were tested in an animal model of Parkinsons' disease, a condition caused by low levels of the neurotransmitter dopamine in the brain. Mice were pretreated with reserpine which depletes dopamine and causes animals to become catatonic. The ability of L-DOPA and L-DOPA-GTP2 to reverse this condition was measured.
Mice were injected intraperitoneally (ip) with reserpine (5 mg/kg) and 4 hours later tested for catatonia. A mouse was judged to be catatonic if it was able to stay on a stopper of 4.5 cm diameter for 5 minutes. Catatonic animals were then injected ip with L-DOPA or L-DOPA-GTP2 suspended in Miglyol (200-400 μl/mouse) immediately before use and observed.

B16 melanoma cells = experiment: Tumour Cytotoxicity Model (B16 melanoma in C57 mice); assay type: in vivo, C57 black mice; design: Mean (standard error) of B16 tumour volume adjusted for the variation in initial volume: scale not given here; conditions: for difference in tumour volume from the Vehicle group (95% level): 0.5 mg and 1.0 mg groups; for Mean (standard error) of B16 tumour volume adjusted for the variation in initial volume: statistically modified tumour volume; for B16 Tumour Volume: individual mice
Method: Groups of C57 black mice were given an initiation dose of 2×10^5 B16 melanoma cells as an intradermal injection. The cells were suspended in MEM without serum. The abdomen was clipped and 100 μl of cells + MEM was injected. […] The tumours were measured with a micrometer and photographed just prior to the injection of drug (day 8-10).
The cytotoxic drugs and their fatty acid conjugates were dissolved or suspended in 4:1 soy bean oil:ethyl oleate. A 10 mg/ml or a 20 mg/ml solution of each parent drug or the fatty acid conjugate made to the same molar concentration as the parent drug was then injected into the same region as the tumour at a dose of 0.5 mg or 1 mg. The tumours were then photographed, measured and re-injected every two to three days.

[2] = test system: pain response on heated plate; conditions: for mean time response: standard error of each mean ±2.86
Method: The biological activities of Morphine (Mo) and fatty acid conjugates were tested in an antinociceptive assay using mice. Various doses and duration of pain-killing effect of the drugs were examined.
Quackenbush Strain mice (male, 5-week-old, approximately 30 g live weight) were used for the experiments. Animals were given free access to food and water prior to and during the experiment. Animals were divided into groups of 12 and individually weighed. The mean weight for each group was calculated. Mice were then placed on a metal block heated to 50° C. and the time taken for the animals to show signs of discomfort was measured (baseline response: control). Mice were then injected intraperitoneally (ip) with various doses of Morphine or Morphine-fatty acid conjugate. Morphine was made up in a H2O solution and Morphine-fatty acids were made up in an emulsion containing 10% glycerylmonooleate, 21% Miglyol, 6% ethanol, 24% Tween 80 (33%) and 39% H2O. 0.2 ml of appropriate solution was injected ip into each mouse. At different times after injection, responses on the heated plate were measured. In each experiment 3 doses of Morphine and Morphine-fatty acid and 2 time points were tested. A single mouse was used for each treatment and the entire experiment repeated at least 3 times. […] Members of the panel were asked to score mice behaviour according to the following key:
0=agitated mouse, distressed
1=showing mild discomfort
2=not agitated or uncomfortable but still alert
3=placid. docile; not at all worried.
Results from the panel were averaged.

[3] = DOPA moiety 364 mg/kg ip, 20 min
[4] = DOPA moiety 637 mg/kg ip, 20 min

SMILES: CCCCCCCCCCCCCCCC(=O)OCC(COC(=O)CCCCCCCCCCCCCCC)(COC(=O)CCCCCCCCCCCCCCC)NC(=O)CNC(=O)CCC(=O)OCC(=O)C1(O)CCC2C3CCC4=CC(=O)CCC4(C)C3C(O)CC21C (stereo not drawn) [HC-Suc-GTP3, Hydrocortisone-Suc-Gly-Tris-Tripalmitate]
- Mean Net Skin Fold Thickness (UVB induced oedema; 0.5 mg/mouse topical in ethanol, applied Day −5 (5 days prior to UV exposure), 2MED UVB, measured 24 h): 93.8 ± 9.8 10^−2 mm
- Mean Net Skin Fold Thickness (UVB induced oedema; 0.5 mg/mouse topical, applied Day 0 after UV exposure, 2MED UVB): 55.8 ± 11.7 10^−2 mm
- Mean Net Skin Fold Thickness (UVB induced oedema; 0.5 mg/mouse topical, applied Day −3 (3 days prior to UV exposure), 2MED UVB): 86.7 ± 9.4 10^−2 mm
- activity equivalent to % of the hydrocortisone activity in protecting against UVB induced oedema (UVB induced oedema; 0.5 mg/mouse, applied at Day 0, post UVB exposure): approximately 50%
- Mean Net Skin Fold Thickness (UVB induced oedema; 1 mg/mouse (1% w/v) topical, applied Day 0 after UV exposure): 27.9 ± 7.5
- Mean Net Skin Fold Thickness (UVB induced oedema; 1 mg/mouse (1% w/v) topical, applied Day −3): 62.9 ± 4.0
- Mean Net Skin Fold Thickness (UVB induced oedema; 1 mg/mouse (1% w/v) topical, applied Day −5): 103.8 ± 3.0

SMILES: N[C@@H](Cc1ccc(O)c(O)c1)C(=O)O [L-DOPA, 3-(3,4-dihydroxyphenyl)-alanine, reference compound]
- Anti-Reserpine Activity (response) [1, 3]: +
- Anti-Reserpine Activity (response) [1, 4]: +
- Response at 15 min. ([1]; L-DOPA moiety 9.1 mg/kg ip): −
- Response at 15 min. ([1]; L-DOPA moiety 91 mg/kg ip): − and +
- Response at 15 min. ([1]; L-DOPA moiety 364 mg/kg ip): +
- Response at 15 min. ([1]; L-DOPA moiety 637 mg/kg ip): +
- Response at 15 min. ([1]; L-DOPA moiety 910 mg/kg ip): +
- doses at which all catatonic animals became active ([1]; ip, Experiment 1): ≥ 364 mg/kg
- toxic effects observed in treated catatonic mice ([1]; mouse, in vivo, ip): toxic effects of L-DOPA such as rearing, salivating and jumping

SMILES: CCCCCCCCCCCCCCCC(=O)OCC(CO)(COC(=O)CCCCCCCCCCCCCCC)NC(=O)CNC(=O)[C@@H](N)Cc1ccc(O)c(O)c1 [L-DOPA-GTP2, DOPA-Gly-Tris-Dipalmitate]
- time after administration at which signs of recovery showed ([1]; 364 mg DOPA/kg ip): 7 h
- time after administration at which signs of recovery showed ([1]; 637 mg DOPA/kg ip): 5 h
- recovery from catatonia at low doses ([1]; 9.1 and 91 mg DOPA/kg ip): did not recover
- Anti-Reserpine Activity (response) ([1]; DOPA moiety 9.1 mg/kg ip, 20 min): − −
- Anti-Reserpine Activity (response) ([1]; DOPA moiety 9.1 mg/kg ip, 2 hr): − −
- Anti-Reserpine Activity (response) ([1]; DOPA moiety 9.1 mg/kg ip, 5 hr): − −
- Anti-Reserpine Activity (response) ([1]; DOPA moiety 9.1 mg/kg ip, 6 hr): − −
- Anti-Reserpine Activity (response) ([1]; DOPA moiety 9.1 mg/kg ip, 7 hr): − −
- Anti-Reserpine Activity (response) ([1]; DOPA moiety 9.1 mg/kg ip, 8 hr): − −
- Anti-Reserpine Activity (response) ([1]; DOPA moiety 91 mg/kg ip, 20 min): − −
- Anti-Reserpine Activity (response) ([1]; DOPA moiety 91 mg/kg ip, 2 hr): − −
- Anti-Reserpine Activity (response) ([1]; DOPA moiety 91 mg/kg ip, 5 hr): − −
- Anti-Reserpine Activity (response) ([1]; DOPA moiety 91 mg/kg ip, 6 hr): − −
- Anti-Reserpine Activity (response) ([1]; DOPA moiety 91 mg/kg ip, 7 hr): − −
- Anti-Reserpine Activity (response) ([1]; DOPA moiety 91 mg/kg ip, 8 hr): − −
- Anti-Reserpine Activity (response) [1, 3]: − −
- Anti-Reserpine Activity (response) ([1]; DOPA moiety 364 mg/kg ip, 2 hr): − −
- Anti-Reserpine Activity (response) ([1]; DOPA moiety 364 mg/kg ip, 5 hr): − −
- Anti-Reserpine Activity (response) ([1]; DOPA moiety 364 mg/kg ip, 6 hr): − −
- Anti-Reserpine Activity (response) ([1]; DOPA moiety 364 mg/kg ip, 7 hr): M —
- Anti-Reserpine Activity (response) ([1]; DOPA moiety 364 mg/kg ip, 8 hr): M M
- Anti-Reserpine Activity (response) [1, 4]: −
- Anti-Reserpine Activity (response) ([1]; DOPA moiety 637 mg/kg ip, 2 hr): −
- toxic effects observed in treated catatonic mice ([1]; ip in Miglyol, active doses): did not exhibit the high activity level and toxic effects

SMILES: CCCCCCCCCCCCCCCC(=O)OCC(CO)(COC(=O)CCCCCCCCCCCCCCC)NC(=O)CNC(=O)CC[C@H](NC(=O)c1ccc(N(C)Cc2cnc3nc(N)nc(N)c3n2)cc1)C(=O)O [MTXGTP2, Methotrexate-γ-Gly-Tris-Dipalmitate]
- difference in tumour volume from the Vehicle group (95% level) (B16 melanoma cells): significant difference
- Mean (standard error) of B16 tumour volume adjusted for the variation in initial volume (B16 melanoma cells; 13/11/95, 0.5 mg): 2.04 (0.565)
- Mean (standard error) of B16 tumour volume adjusted for the variation in initial volume (B16 melanoma cells; 13/11/95, 1.0 mg): 2.30 (0.536)
- Mean (standard error) of B16 tumour volume adjusted for the variation in initial volume (B16 melanoma cells; 15/11/95, 0.5 mg): 3.37 (0.884)
- Mean (standard error) of B16 tumour volume adjusted for the variation in initial volume (B16 melanoma cells; 15/11/95, 1.0 mg): 3.40 (0.839)
- Mean (standard error) of B16 tumour volume adjusted for the variation in initial volume (B16 melanoma cells; 16/11/95, 0.5 mg): 3.76 (1.06)
- Mean (standard error) of B16 tumour volume adjusted for the variation in initial volume (B16 melanoma cells; 16/11/95, 1.0 mg): 4.13 (1.01)
- Mean (standard error) of B16 tumour volume adjusted for the variation in initial volume (B16 melanoma cells; 17/11/95, 0.5 mg): 4.03 (1.28)
- Mean (standard error) of B16 tumour volume adjusted for the variation in initial volume (B16 melanoma cells; 17/11/95, 1.0 mg): 4.89 (1.22)
- B16 Tumour Volume (B16 melanoma cells; Day 1, drug dose 0.5 mg injected at tumour region): 0.5 mm^2 (2×) and 2.7 mm^2 and 16.6 mm^2
- B16 Tumour Volume (B16 melanoma cells; Day 1, drug dose 1.0 mg): 0.1 mm^2 and 8.2 mm^2 (2×) and 10.8 mm^2
- B16 Tumour Volume (B16 melanoma cells; Day 3, drug dose 0.5 mg): 0 mm^2 (3×) and 16.6 mm^2
- B16 Tumour Volume (B16 melanoma cells; Day 3, drug dose 1.0 mg): 0.1 mm^2 and 10.8 mm^2 and 0 mm^2 and 30.4 mm^2
- B16 Tumour Volume (B16 melanoma cells; Day 5, drug dose 0.5 mg): 0 mm^2 (2×) and 11.8 mm^2 and 64.5 mm^2
- B16 Tumour Volume (B16 melanoma cells; Day 5, drug dose 1.0 mg): 0.5 mm^2 and 21.8 mm^2 and 0 mm^2 and 142.5 mm^2
- B16 Tumour Volume (B16 melanoma cells; Day 6, drug dose 0.5 mg): 0 mm^2 (2×) and 19.8 mm^2 and 77.6 mm^2
- B16 Tumour Volume (B16 melanoma cells; Day 6, drug dose 1.0 mg): 0.5 mm^2 and 46.8 mm^2 and 0 mm^2 and 261.8 mm^2
- B16 Tumour Volume (B16 melanoma cells; Day 7, drug dose 0.5 mg): 0 mm^2 (2×) and 26 mm^2 and 113 mm^2
- B16 Tumour Volume (B16 melanoma cells; Day 7, drug dose 1.0 mg): 14 mm^2 and 50 mm^2 and 0 mm^2 and 379 mm^2

SMILES: CN(Cc1cnc2nc(N)nc(N)c2n1)c1ccc(C(=O)N[C@@H](CCC(=O)O)C(=O)O)cc1 [Methotrexate, reference compound]
- difference in tumour volume from the Vehicle group (95% level) (B16 melanoma cells): no significant difference
- Mean (standard error) of B16 tumour volume adjusted for the variation in initial volume (B16 melanoma cells; 13/11/95, 0.5 mg): 3.58 (0.610)
- Mean (standard error) of B16 tumour volume adjusted for the variation in initial volume (B16 melanoma cells; 15/11/95, 0.5 mg): 5.47 (0.955)
- Mean (standard error) of B16 tumour volume adjusted for the variation in initial volume (B16 melanoma cells; 16/11/95, 0.5 mg): 6.07 (1.15)
- Mean (standard error) of B16 tumour volume adjusted for the variation in initial volume (B16 melanoma cells; 17/11/95, 0.5 mg): 7.24 (1.38)
- B16 Tumour Volume (B16 melanoma cells; Day 1, drug dose 0.5 mg injected at tumour region, listed as MTX): 0.5 mm^2 and 3.8 mm^2 and 14.1 mm^2 and 26 mm^2
- B16 Tumour Volume (B16 melanoma cells; Day 3, drug dose 0.5 mg, listed as MTX): 13.6 mm^2 and 4.2 mm^2 and 30.4 mm^2 and 86 mm^2
- B16 Tumour Volume (B16 melanoma cells; Day 5, drug dose 0.5 mg, listed as MTX): 73.5 mm^2 and 14.1 mm^2 and 86.0 mm^2 and 219.4 mm^2
- B16 Tumour Volume (B16 melanoma cells; Day 6, drug dose 0.5 mg, listed as MTX): 125.1 mm^2 and 14.1 mm^2 and 215.0 mm^2 and 266.5 mm^2
- B16 Tumour Volume (B16 melanoma cells; Day 7, drug dose 0.5 mg, listed as MTX): 190 mm^2 and 21 mm^2 and 234 mm^2 and 515 mm^2

SMILES: CCCCCCCCCCCCCCCC(=O)OCC(COC(=O)CCCCCCCCCCCCCCC)(COC(=O)CCCCCCCCCCCCCCC)NC(=O)CNC(=O)CCC(=O)Oc1ccc2c3c1O[C@H]1[C@@H](O)C=C[C@H]4[C@@H](C2)N(C)CC[C@@]341 [Mo-Suc-GTP3, Morphine-Suc-Gly-Tris Tripalmitate]
- mean time response ([2]; 1 mg Mo/kg ip, 4 hr): 23.5 s
- mean time response ([2]; 1 mg Mo/kg ip, 6 hr): 27.8 s
- mean time response ([2]; 10 mg Mo/kg ip, 4 hr): 29.8 s
- mean time response ([2]; 10 mg Mo/kg ip, 6 hr): 29.0 s
- duration of pain-killing effect compared with morphine ([2]; ip injection): longer lasting effect than morphine
